From patent US8791102B2, “Acetanilide sphingosine-1-phosphate receptor antagonists” (Exelixis, Inc., priority 2008, dated 2014) come the findings set out here.

This assay has as its target T1, human S1P1 receptors (Homo sapiens, UniProt P21453).
T1 construct: host or cells: HEK293
As to the kind of experiment: S1P1R antagonist assay (fluorescent membrane potential dye, cAMP readout). It is filed as cell-based. The note with it: HEK293 cells expressing human S1P1 receptors and CNG channel; 500 nM NECA; S1P1R agonist 10 nM; 90 minutes; read-out: EC50 or IC50 value.

As usually defined, the IC50 is the concentration at which inhibition is half-maximal.

T1 sequence (P21453 whole entry): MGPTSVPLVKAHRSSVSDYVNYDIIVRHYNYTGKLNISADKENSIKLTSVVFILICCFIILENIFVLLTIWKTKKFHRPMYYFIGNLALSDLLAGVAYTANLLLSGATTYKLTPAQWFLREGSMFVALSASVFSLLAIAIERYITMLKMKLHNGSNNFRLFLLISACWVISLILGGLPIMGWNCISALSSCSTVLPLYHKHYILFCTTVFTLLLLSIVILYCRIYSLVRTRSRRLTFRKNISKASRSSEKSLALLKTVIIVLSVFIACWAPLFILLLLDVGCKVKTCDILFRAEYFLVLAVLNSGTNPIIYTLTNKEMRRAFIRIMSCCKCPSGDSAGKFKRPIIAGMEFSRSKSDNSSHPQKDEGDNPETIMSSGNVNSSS

With `O=C(CN1CC=CC1)N[C@@H](COCc1ccccc1)C(=O)Nc1ccc(Oc2ccc(F)cc2)cc1` [Compound 214, (S)-3-(benzyloxy)-2-(2-(2,5-dihydro-1H-pyrrol-1-yl)acetamido)-N-(4-(4-fluorophenoxy)phenyl)propanamide], the IC50 was ≤ 300 nM.

`O=C(COc1cccc2ccccc12)NC(COCc1ccccc1)C(=O)Nc1ccc(Oc2ccccc2)cc1` (centres unmarked) [Compound 371, N-(2-oxo-1-{[(phenylmethyl)oxy]methyl}-2-{[4-(phenyloxy)phenyl]amino}ethyl)-2-(naphthalen-1-yloxy)acetamide]: the IC50 is > 1000 nM.

`O=C(NC(COCc1ccccc1)C(=O)Nc1ccc(Oc2ccccc2)cc1)C(=O)c1ccco1` (centres unmarked) [Compound 14, 3-(benzyloxy)-2-(2-(furan-2-yl)-2-oxoacetamido)-N-(4-phenoxyphenyl)propanamide]: the IC50 is > 1000 nM.

As to `CN(C)CCC(=O)N[C@@H](COCc1ccccc1)C(=O)Nc1ccc(Oc2ccc(Cl)cc2)cc1` [Compound 209, (S)-3-(benzyloxy)-N-(4-(4-chlorophenoxy)phenyl)-2-(3-(dimethylamino)propanamido)propanamide], the IC50 lay in the range of 300 to 1000 nM.

In the case of `CC/C=C/CC(=O)N[C@@H](COCc1ccccc1)C(=O)Nc1ccc(Oc2ccc(F)cc2)cc1` [Compound 232, (S,E)-N-(3-(benzyloxy)-1-(4-(4-fluorophenoxy)phenylamino)-1-oxopropan-2-yl)hex-3-enamide], the IC50 is > 1000 nM.

With `Cc1cncc(C(=O)NC(COCc2ccccc2)C(=O)Nc2ccc(Oc3ccccc3)cc2)c1` (centres unmarked) [Compound 18, N-(3-(benzyloxy)-1-oxo-1-(4-phenoxyphenylamino)propan-2-yl)-5-methylnicotinamide], the IC50 is > 1000 nM.

Take `O=C(CN1CCOCC1)N[C@@H](COCc1ccc(F)cc1)C(=O)Nc1ccc(Oc2ccc(F)cc2)cc1` [Compound 210, (S)-3-(4-fluorobenzyloxy)-N-(4-(4-fluorophenoxy)phenyl)-2-(2-morpholinoacetamido)propanamide]: the IC50 is ≤ 300 nM.

Consider `Cc1ccc(Oc2ccc(NC(=O)[C@H](COCc3ccccc3)NC(=O)Cc3c[nH]cn3)cc2)cc1` [Compound 158, (S)-2-(2-(1H-imidazol-5-yl)acetamido)-3-(benzyloxy)-N-(4-(p-tolyloxy)phenyl)propanamide], for which the IC50 was ≤ 300 nM.

`O=C(Nc1ccc(Oc2ccc(Cl)cc2)cc1)[C@@H]1C[C@@H](Cc2ccccc2)CN1C(=O)Cn1cncn1` [Compound 79, (2S,4R)-1-(2-(1H-1,2,4-triazol-1-yl)acetyl)-4-benzyl-N-(4-(4-chlorophenoxy)phenyl)pyrrolidine-2-carboxamide]: the IC50 was ≤ 300 nM.

For `CC(C)=CCC[C@H](C)CC(=O)N[C@@H](COCc1ccccc1)C(=O)Nc1ccc(Oc2ccc(F)cc2)cc1` [Compound 248, (S)—N—((S)-3-(benzyloxy)-1-(4-(4-fluorophenoxy)phenylamino)-1-oxopropan-2-yl)-3,7-dimethyloct-6-enamide], the IC50 lay in the range of 300 to 1000 nM.

Consider `O=C(Cc1cnc[nH]1)N[C@@H](COCc1ccccc1)C(=O)Nc1ccc(Cc2ccccc2)cc1` [Compound 200, (S)-2-(2-(1H-imidazol-4-yl)acetamido)-3-(benzyloxy)-N-(4-benzylphenyl)propanamide], for which the IC50 is ≤ 300 nM.

Turning to `O=C(N[C@@H]1C[C@@H](C(=O)Nc2ccc(Oc3ccc(F)cc3)cc2)N(C(=O)Cc2cnc[nH]2)C1)OCc1ccccc1` [Compound 253, benzyl (3R,5S)-1-(2-(1H-imidazol-5-yl)acetyl)-5-(4-(4-fluorophenoxy)phenylcarbamoyl)pyrrolidin-3-ylcarbamate], the IC50 was ≤ 300 nM.

With `COC(=O)C1CCN(CC(=O)N[C@@H](COCc2ccccc2)C(=O)Nc2ccc(Oc3ccc(F)cc3)cc2)CC1` [Compound 238, (S)-methyl 1-(2-(3-(benzyloxy)-1-(4-(4-fluorophenoxy)phenylamino)-1-oxopropan-2-ylamino)-2-oxoethyl)piperidine-4-carboxylate], the IC50 fell in the range of 300 to 1000 nM.

Consider `O=C(CN1CCN(C(=O)c2ccco2)CC1)N[C@@H](COCc1ccccc1)C(=O)Nc1ccc(Oc2ccc(F)cc2)cc1` [Compound 223, (S)-3-(benzyloxy)-N-(4-(4-fluorophenoxy)phenyl)-2-(2-(4-(furan-2-carbonyl)piperazin-1-yl)acetamido)propanamide], for which the IC50 is 300 to 1000 nM.

With `O=C(CN1CCN(CC2CCCO2)CC1)N[C@@H](COCc1ccccc1)C(=O)Nc1ccc(Oc2ccc(F)cc2)cc1` (stereo partly drawn) [Compound 110, (2S)-3-(benzyloxy)-N-(4-(4-fluorophenoxy)phenyl)-2-(2-(4-((tetrahydrofuran-2-yl)methyl)piperazin-1-yl)acetamido)propanamide], the IC50 was > 1000 nM.

As for `O=C(Nc1ccc(Oc2ccc(F)cc2)cc1)[C@@H]1C[C@@H](Cc2c(F)cc(F)cc2F)CN1C(=O)Cn1cncn1` [Compound 108, (2S,4R)-1-(2-(1H-1,2,4-triazol-1-yl)acetyl)-N-(4-(4-fluorophenoxy)phenyl)-4-(2,4,6-trifluorobenzyl)pyrrolidine-2-carboxamide], the IC50 is ≤ 300 nM.

In the case of `O=C(Nc1ccc(Oc2ccc(F)cc2)cc1)[C@@H]1CN(C(=O)OCc2ccccc2)CCN1C(=O)Cc1c[nH]cn1` [Compound 257, (S)-benzyl 4-(2-(1H-imidazol-4-yl)acetyl)-3-(4-(4-fluorophenoxy)phenylcarbamoyl)piperazine-1-carboxylate], the IC50 was 300 to 1000 nM.

With `COc1ccc(C(=O)NC(COCc2ccccc2)C(=O)Nc2ccc(Oc3ccccc3)cc2)cc1` (centres unmarked) [Compound 270, 4-(methyloxy)-N-(2-oxo-1-{[(phenylmethyl)oxy]methyl}-2-{[4-(phenyloxy)phenyl]amino}ethyl)benzamide], the IC50 is > 1000 nM.

As to `COc1cccc(C[C@@H]2C[C@@H](C(=O)Nc3ccc(Oc4ccc(F)cc4)cc3)N(C(=O)Cn3ccnn3)C2)c1` [Compound 68, (2S,4R)-1-(2-(1H-1,2,3-triazol-1-yl)acetyl)-N-(4-(4-fluorophenoxy)phenyl)-4-(3-methoxybenzyl)pyrrolidine-2-carboxamide], the IC50 was ≤ 300 nM.

Consider `O=C(NC(COCc1ccccc1)C(=O)Nc1ccc(Oc2ccccc2)cc1)c1cnccn1` (centres unmarked) [Compound 351, N-(2-oxo-1-{[(phenylmethyl)oxy]methyl}-2-{[4-(phenyloxy)phenyl]amino}ethyl)pyrazine-2-carboxamide], for which the IC50 was > 1000 nM.

As to `O=C(Cn1ccnc1)N[C@@H](COCc1ccccc1)C(=O)Nc1ccc(Oc2ccc(F)cc2)cc1` [Compound 134, (S)-2-(2-(1H-imidazol-1-yl)acetamido)-3-benzyloxy-N-(4-(4-fluorophenoxy)phenyl)propanamide], the IC50 was ≤ 300 nM.

Take `O=C(CN1CCCC2CCCCC21)N[C@@H](COCc1ccccc1)C(=O)Nc1ccc(Oc2ccc(F)cc2)cc1` (stereo partly drawn) [Compound 45, (2S)-3-(benzyloxy)-N-(4-(4-fluorophenoxy)phenyl)-2-(2-(octahydroquinolin-1(2H)-yl)acetamido)propanamide]: the IC50 was > 1000 nM.

On to `CC(=O)c1ccc(OCC(=O)NC(COCc2ccccc2)C(=O)Nc2ccc(Oc3ccccc3)cc2)cc1` (centres unmarked) [Compound 319, N-(2-oxo-1-{[(phenylmethyl)oxy]methyl}-2-{[4-(phenyloxy)phenyl]amino}ethyl)-4-acetylphenoxyacetamide], for which the IC50 is > 1000 nM.
